Common to all, as to assay type: binding
Assay [1] has as its target T1, FBW7^ARG+pCycE (Homo sapiens, UniProt Q969H0, R505L).
T1 construct: GST (TEV site and flexible linker) (N, cleaved yes); made in house; host or cells: SF9 insect cells (baculovirus)
Put plainly: FBW7^ARG-cyclin E agonist ALPHAscreen (primary PRUN, confirmation CRUN1, dose-response DRUN). The note with it: for Emax / EC50: DRUN dose-response; for Emax: relative to WT-FBW7+pCycE, read-out: FBW7 ACT Averaged Max % Response. The source says: FBW7^ARG refers to a class of loss-of-function mutations of the of FBW7 ubiquitin ligase that target a key phosphate-binding arginine residue in the FBW7 substrate-binding domain. These mutations are commonly found in human cancers and promote tumorigenesis by impairing the interactions between FBW7 and its substrates, such as cyclin E and Myc. Described herein is a high throughput screen (HTS) to identify agonists, such as small molecules, that augment FBW7^ARG-substrate binding. In an embodiment, the HTS is based on the Amplified Luminescent Proximity Homogenous Assay (ALPHAscreen) because it detects protein-protein interactions with a large dynamic range. ALPHAscreen is a bead-based proximity assay wherein donor beads contain a photosensitizer, phthalocyanine, and acceptor beads contain thioxene, anthracene and rubrenein in sufficient quantities to generate a chemiluminescence/fluorescence reaction (FIG. 4A). Upon excitation with excitation illumination, such as light having a wavelength of 680 nm, of the donor beads, phthalocyanine converts ambient oxygen to singlet oxygen, which can diffuse approximately 200 nm within its 4-microsecond half-life. If an acceptor bead is in close proximity to an excited donor bead, singlet oxygen transfers its energy to the acceptor, resulting in emitted light at a broad bandwidth of −520-620 nm. The HTS-compatible FBW7/cyclin E ALPHAscreen assay described herein uses streptavidin coupled donor beads and Ni-chelate acceptor beads. In this assay, biotinylated cyclin E phosphopeptide and the His-tagged FBW7 mutant protein have high affinity for the donor and acceptor beads, respectively (FIG. 4B). A small molecule that is able to bridge the binding sites of the peptide and the mutant protein (or induce a conformational change that increases affinity of the protein for the peptide) will bring the donor and acceptor beads in close proximity to each other, resulting in an ALPHA signal. As designed, this assay format is a very sensitive, non-radioactive, homogenous “mix-and-read” format that is HT compatible in 384 and 1536 well formats.
In the 384-well screening assay, 10 uL of acceptor beads with 25 nM of the FBW7^ARG (RLFBW7) are dispensed to test wells; acceptor beads with 25 nM of the wt-FBW7 protein (WTFBW7) are dispensed to control wells. Test compounds are then added by pintool transfer and the mixture is incubated for 30 minutes. An additional 10 uL of donor beads with 25 nM cyclin E phosphopeptide is then added to all wells and the plate is incubated for 4 hours before the ALPHA signal is measured.
In preparation for large-scale screening, the assay was miniaturized to a 1536-well format. The miniaturized screen performed outstandingly in all respects. The screen was enhanced with respect to several parameters and assayed its performance using mutant FBW7 and wt-FBW7, as well as non-specific assay agonists. […] For example, the following Z′-scores/FBW7 concentrations were obtained: 6.25 nM/Z′=0.62, 12.5 nm/Z′=0.85, 25.0 nM/Z′=0.84.
1. Add 2.5 uL of RLFBW7/cycE˜P/Ni beads: Final [25 nM/25 nM/10 ug/ml].
2. Add 2.5 uL of WTFBW7/cycE˜P/Ni beads: Final [25 nM/25 nM/10 ug/ml].
4. Add 2.5 uL of SA beads to all wells Final [10 ug/ml],
5. Add 30 nL of compounds,
6. Read ALPHAscreen on Envision
The large-scale FBW7 agonist ALPHAscreen was completed using FBW7^ARG and a phosphorylated cyclin E (pCycE) degron peptide. Wt-FBW7+pCycE-peptide was the “high control”, and Wt-FBW7+unphosph. CycE peptide was the “low control”. The screen was performed on the 645,000-compound Scripps Diversity Library using 1536-well format and drug concentrations of 26.1 μM. An algorithm aided hit identification based on the average percent activation for all compounds and their standard deviation.
A confirmation assay of all 853 compounds in triplicate using a single concentration (26.1 μM). […]

For assay [2], the system named is pCycE alone. Put plainly: Counterscreen 2 ALPHAscreen with cyclin E phosphopeptide alone (CSRUN2/DCSRUN2). The note with it: for CyCEP ACT DCSRUN2 Averaged Max % Response: activation relative to WT-FBW7+pCycE, averaged maximum; for EC50: dose-response, triplicate, 10 point 3-fold dilutional series, read-out: CyCEP ACT DCSRUN2 Final EC50. On the procedure:
(§1) Studies in 384-well format were performed using the ENVISION system. Reagent concentrations (see FIG. 6A), order of addition, pH (see FIG. 6B), and reducing agent were altered with the goal of enhancing the dynamic range between wt-FBW7 (the positive control) and FBW7^ARG (FIG. 6 and not shown). Wt-FBW7 produced a signal 100× greater with phosphorylated cyclin E degron peptide compared with unphosphorylated, which represents the assay's maximum range (FIG. 6C). […] This assay thus detects the residual affinity of the FBW7^ARG-substrate interaction, which, as predicted, is stronger than wt-FBW7 protein with unphosphorylated cyclin E peptide. Concurrent with this primary assay, counter ALPHAscreens were developed which omitted either FBW7 or peptide (to eliminate hits that are general ALPHAscreen agonists), or used an irrelevant phosphopeptide (to eliminate compounds that simply augment binding to phosphopeptides). […]
(§2) The 77 hits were subjected to a dose-response assay in which each compound was tested in triplicate in a 10 point 3-fold dilutional series, to a maximum concentration of approximately 87 μM. Three screens were performed, using FBW7^ARG+pCycE (DRUN), FBW7^ARG (DCSRUN1), or pCycE alone (DCSRUN2). See TABLES 2, 3, and 4, respectively, and FIG. 10A. All of the assays performed extremely well, and threshold of 10% activation (relative to WT-FBW7+pCycE) was set as positive. […] Many hits fell into shared structure cluster ID groups, reinforcing the idea that they function as specific agonists (see below and TABLE 5).

Assay [3] addresses T2, FBW7^ARG (RLFBW7) alone (Homo sapiens, UniProt Q969H0, R505L).
T2 construct: GST (TEV site and flexible linker) (N, cleaved yes); made in house; host or cells: SF9 insect cells (baculovirus)
In words: Counterscreen 1 ALPHAscreen with FBW7^ARG alone (CSRUN1/DCSRUN1). The note with it: dose-response counterscreen; for Emax: read-out: RLFBW7 ACT DCSRUN1 Averaged Max % Response. On the procedure: as §1, §2

Setting [4] is: confirmation assay, triplicate, single concentration 26.1 μM, read-out: FBW7 ACT CRUN1 Avg % Response and Stdev.
Setting [5] is: primary screen, 1536-well, 26.1 μM, FBW7^ARG + pCycE degron peptide, high control wt-FBW7+pCycE, read-out: FBW7 ACT PRUN % Response.
Where [6] appears, read: raw curve fit, read-out: FBW7 ACT EC50 Curve Fit Raw, Molar.
Setting [7] is: triplicate, 10 point 3-fold dilution, max approx. 87 μM, read-out: FBW7 ACT Final EC50, Molar.
Where [8] appears, read: raw curve fit, read-out: RLFBW7 ACT DCSRUN1 EC50 Curve Fit Raw.
The mark [9] stands for this setting: read-out: RLFBW7 ACT DCSRUN1 Final EC50.

Like-named read-outs stand apart in the source and are kept apart here.

T2 sequence (Q969H0 64-707 R505L): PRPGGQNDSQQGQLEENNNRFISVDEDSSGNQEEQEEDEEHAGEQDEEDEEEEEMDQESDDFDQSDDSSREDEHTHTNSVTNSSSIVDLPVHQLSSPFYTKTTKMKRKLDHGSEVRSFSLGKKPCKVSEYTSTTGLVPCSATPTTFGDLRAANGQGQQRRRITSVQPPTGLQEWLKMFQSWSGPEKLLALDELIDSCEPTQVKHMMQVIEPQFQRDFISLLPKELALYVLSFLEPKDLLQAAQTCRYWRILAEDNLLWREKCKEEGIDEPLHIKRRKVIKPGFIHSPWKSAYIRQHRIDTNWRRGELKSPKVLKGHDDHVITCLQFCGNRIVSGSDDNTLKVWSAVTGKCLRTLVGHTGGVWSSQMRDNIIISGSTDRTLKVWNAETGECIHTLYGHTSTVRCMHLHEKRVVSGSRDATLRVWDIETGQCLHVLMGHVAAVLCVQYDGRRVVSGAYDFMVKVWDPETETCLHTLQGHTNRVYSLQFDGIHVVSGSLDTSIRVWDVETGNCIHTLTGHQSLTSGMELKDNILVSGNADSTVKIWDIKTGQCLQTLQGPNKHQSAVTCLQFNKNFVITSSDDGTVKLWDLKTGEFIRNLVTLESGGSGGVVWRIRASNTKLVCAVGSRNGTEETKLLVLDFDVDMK
T2 sequence (P63208 2-163 partner): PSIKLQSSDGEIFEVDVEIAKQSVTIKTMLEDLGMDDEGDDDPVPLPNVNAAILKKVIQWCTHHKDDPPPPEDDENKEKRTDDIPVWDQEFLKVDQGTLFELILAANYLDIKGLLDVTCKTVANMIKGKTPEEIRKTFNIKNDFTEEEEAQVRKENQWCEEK
T1 sequence (Q969H0 64-707 R505L): as the sequence (Q969H0 64-707 R505L) above
T1 sequence (P63208 2-163 partner): as the sequence (P63208 2-163 partner) above

Turning to `CCOC(=O)C1=CN(Cc2ccc(OC)cc2)C=C(C(=O)OCC)C1c1ccccc1OCc1ccccc1` [SR-01000587933-1], the Emax came out at 12% in assay [1] and 3.64% in assay [3]. Besides, the activation at 26.1 µM in assay [1] (setting [4]) is 2.81 ± 0.04%; in assay [1] (setting [5]) it was 2.16%. Further, the “CyCEP ACT DCSRUN2 Averaged Max % Response” value in assay [2] was 2.45%. The EC50 in assay [2] is greater than 44.2 µM.
`Cc1cccc(NC(=O)N2CCC(c3nnc(C4CC4)s3)CC2)c1` [SR-01000922889-1]: the EC50 in assay [1] (setting [6]) was 16.5 µM; in assay [1] (setting [7]) it was greater than 65.3 µM; in assay [2], greater than 65.3 µM; in assay [3] (setting [8]), 22.5 µM; in assay [3] (setting [9]) it was greater than 65.3 µM. In addition, the Emax worked out at 18.3% in assay [1] and 0.09% in assay [3]. In addition, the results for the activation at 26.1 µM in assay [1] (setting [4]) and in assay [1] (setting [5]) were 4.96 ± 0.03% and 3.13%, respectively. For the same molecule, in assay [2], the “CyCEP ACT DCSRUN2 Averaged Max % Response” value worked out at 0.23%.
As for `CSc1ccccc1C(=O)Nc1nc2nc(C)cc(C)c2s1` [SR-01000917298-1], the EC50 in assay [1] (setting [6]) is 53.6 µM; in assay [1] (setting [7]), greater than 65.3 µM; in assay [2], greater than 65.3 µM; in assay [3] (setting [8]), 28.6 µM; in assay [3] (setting [9]), 29.9 µM. Besides, the figures for the Emax in assay [1] and in assay [3] were 23.5% and 83%, respectively. Also, the activation at 26.1 µM in assay [1] (setting [4]) came to 3.94 ± 9.71%; in assay [1] (setting [5]), 8.85%. Also, the “CyCEP ACT DCSRUN2 Averaged Max % Response” value in assay [2] is reported as 0.18%. Moreover, the “RLFBW7 ACT DCSRUN1 Hill Slope” value in assay [3] is reported as 6.64.
For `Cc1ccc(-c2nnc(N3CCN(C(=O)c4ccco4)CC3)c3ccccc23)cc1` [SR-01000505133-1], the EC50 in assay [1] (setting [6]) was 19.6 µM; in assay [1] (setting [7]), greater than 54 µM; in assay [2], greater than 54 µM; in assay [3] (setting [8]), 0.008 µM; in assay [3] (setting [9]), greater than 54 µM. Further, the Emax was 16.5% in assay [1] and 2.77% in assay [3]. Moreover, the activation at 26.1 µM was found to be 2.31 ± 0.38% in assay [1] (setting [4]) and 2.28% in assay [1] (setting [5]). Further, the “CyCEP ACT DCSRUN2 Averaged Max % Response” value in assay [2] was found to be 1.77%.
Regarding `CC(C)(C)OC(=O)N/N=C\c1cccs1` [SR-01000110457-1], the EC50 in assay [1] (setting [6]) is 1.4 µM; in assay [1] (setting [7]) it was greater than 65.3 µM; in assay [2], greater than 65.3 µM; in assay [3] (setting [8]) it was 0.823 µM; in assay [3] (setting [9]), greater than 65.3 µM. Moreover, the values for the Emax in assay [1] and in assay [3] were 6.03% and 1.17%, respectively. Also, the activation at 26.1 µM in assay [1] (setting [4]) was 2.27 ± 0.05%; in assay [1] (setting [5]), 5.59%. The “CyCEP ACT DCSRUN2 Averaged Max % Response” value in assay [2] is reported as 0.10%.
In the case of `CC(=O)NCC(c1cccs1)S(=O)(=O)c1ccc(C)cc1` (stereo not drawn) [SR-01000023077-1], the EC50 in assay [1] (setting [6]) was 15.3 µM; in assay [1] (setting [7]), greater than 64.6 µM; in assay [2], greater than 64.6 µM; in assay [3] (setting [8]), 33.3 µM; in assay [3] (setting [9]), greater than 64.6 µM. For the same molecule, the Emax in assay [1] worked out at 18.4%; in assay [3] it was 0.39%. In addition, the activation at 26.1 µM in assay [1] (setting [4]) was 2.46 ± 0.31%; in assay [1] (setting [5]) it was 1.85%. In addition, the “CyCEP ACT DCSRUN2 Averaged Max % Response” value in assay [2] is 0.18%.

As a reminder, the EC50 is the concentration giving half of the maximal effect.

(Values after patent US20210047278A1, “E3 UBIQUITIN LIGASE AGONISTS, PHARMACEUTICAL COMPOSITIONS INCLUDING THE E3 UBIQUITIN LIGASE AGONISTS, RELATED METHODS OF USE” (FRED HUTCHINSON CANCER RESEARCH CENTER, priority 2018, published 2021).)
